{
  "source": "patent US10507205B2",
  "about": "“Methods of treating opiate dependency and preventing non-oral opiate abuse among opiate addicts” (PURDUE PHARMACEUTICAL PRODUCTS L.P., priority 2006, dated 2019)",
  "origin": "cited, not measured here",
  "conditions": "pronounced first-pass metabolism, 'sometimes less than 5%'",
  "data": [
    {"smiles": "C=CCN1CCC23c4c5ccc(O)c4OC2C(=O)CCC3(O)C1C5", "note": "(stereo not shown) [naloxone, Naloxone]", "values": [
      {"measurement": "bioavailability of orally administered naloxone", "value": "less than 5%"}
    ]}
  ]
}
